Measured values from publication PMC12627862, “Therapeutic targeting of endothelial calcium signaling accelerates the resolution of lung injury” (Signal Transduction and Targeted Therapy, 2025).
Starred links: 1 amine or outer side, 2 acyl side, 3 side chain; linkers in the order of their positions; H or OH if unused. Non-standard residues stand in square brackets, D forms with d. Residues, ends and D or L forms follow the SMILES beside them. ξ: configuration not given here. Oic = O=C(O)[C@@H]1C[C@@H]2CCCC[C@@H]2N1; GABOB(3R) = O=C(C[C@@H](O)CN[*:1])[*:2]; tBuAla = CC(C)(C)C[C@H](N)C(=O)O; ξVal(3-OH) = CC(C)(O)C(N)C(=O)O; 4Amb = NCc1ccc(C(=O)O)cc1

Columns and labels:
[1] = test system: CD1 mice, cecal ligation and puncture; assay: Polymicrobial sepsis model (CLP); format: in vivo, mouse
[2] = test system: CD-1 mice subjected to mechanical ventilation; assay: High tidal volume mechanical ventilation (VILI); format: in vivo, mouse; conditions: HVMV 40 mL/kg bw for 2 hours; i.v. 2 µmol/kg bw
From the text: Severely ill ARDS patients undergo intubation and are placed on a mechanical ventilator to maintain adequate oxygen levels in the body[42]. This supportive intervention can have detrimental effects on the lungs, leading to diffuse ventilator-induced lung injury (VILI) in the regions exposed to the highest pressure. Furthermore, VILI primarily targets alveolar epithelial cells, in contrast to indirect models of ARDS, such as endotoxemia and sepsis, where systemic inflammation predominantly injures the pulmonary endothelial barrier. Thus, as a part of a safety study, we investigated the effects of VT-109 on the pathogenesis of VILI. Mice that received vehicle or VT-109 at the most efficacious dose of 2 µmol/kg bw were subjected to high-volume mechanical ventilation (HVMV) at 40 mL/kg bw for 2 hours, and albumin extravasation was measured to determine VILI-induced vascular leakage (Fig. 4g, h).
Mice intubated with a 20-gauge catheter were ventilated using a Harvard Apparatus ventilator (Harvard Bioscience) with high tidal volumes of 40 mL/kg body weight, a respiratory rate of 80 breaths per minute, and no positive end-expiratory pressure (PEEP) for 2 hours to induce ventilator-induced lung injury (VILI). Intravenous treatment with 250 nmol/kg bw VT-109 was administered at the onset of HVMV. Mice breathing spontaneously were used as experimental control.

[3] = in vitro; conditions: rat, plasma
Experimental: (§1) Stability assay of peptides in blood plasma of rodents, dogs, and humans. For the plasma stability assay, 5 μM of each peptide was incubated with species-specific plasma for 120 minutes and samples were taken at the required time points. Positive control used were molecules with known stability: enalapril, propantheline, and warfarin. The amount of test compound remaining at each time point was analyzed by LC-MS/MS. Appropriate control compounds for each species were also incubated.

[4] = test system: Pseudomonas aeruginosa; assay: I.t. P. aeruginosa-induced pneumonia; format: in vivo, mouse
From the text: Most ARDS cases arise secondary to pneumonia, in which infectious agents directly target the alveolar epithelium. Damage to these epithelial cells disrupts the integrity of the alveolar–capillary barrier, leading to protein-rich pulmonary edema and widespread inflammation, two hallmark features of diffuse alveolar damage. Because endothelial barrier disruption is a downstream consequence in this context, we also evaluated the benefits of VT-109 treatment in a model of Pseudomonas aeruginosa–induced lung injury, the most commonly acquired hospital-associated pneumonia. Mice were infected with a sublethal intratracheal dose of 5 × 10^5 CFU Pseudomonas aeruginosa and treated with a moderately efficacious dose of VT-109 (250 nmol/kg bw) at 5 hours post-challenge. The lung tissues were collected at 24 and 48 hours for histopathological analysis of acute lung injury, neutrophil influx, and bacterial counts in BALF (Fig. 5k–n and Supplementary Fig. 4j).
Mice (CD1) were anesthetized by intraperitoneal injection of xylazine and positioned supine on a sterile surgical surface. A small midline incision was made in the neck to expose the trachea. GFP-expressing Pseudomonas aeruginosa (PA) was cultured overnight in LB broth supplemented with carbenicillin (100 µg/mL). A total volume of 30 µL PBS containing 0.5 × 10⁶ colony-forming units (CFU) was injected directly into the trachea using a sterile 28G insulin syringe. Following intratracheal instillation, mice received VT-109 (250 nmol/kg body weight) or vehicle by IV at 5- and 24-hours post-infection. Lung tissues were collected at 24 and 48 hours to assess treatment effects. The left lung was inflated with fixative and harvested for histological analysis, while the right lung was collected for bacterial quantification. For CFU analysis, the right lung was homogenized in 1 mL of sterile PBS using a bead-based tissue homogenizer. Homogenates were serially diluted and plated on LB agar containing carbenicillin (100 µg/mL). Plates were incubated overnight at 37 °C, and CFUs were counted the following day. […]

[5] = in vitro; conditions: human, plasma
Experimental: as §1

[6] = in vitro; conditions: dog, plasma
Experimental: as §1

[7] = in vivo; conditions: male, Crl:CD (SD), rat, iv, 5 mg/kg
Experimental: Blood samples were collected at predefined time points (2, 10, 30, 60, 90 minutes, and 2, 4, 6, 8, and 24 hours post-dosing) from subgroups of rats, ensuring each animal contributed a limited number of samples to minimize stress. Plasma was separated by centrifugation and stored at -80 °C until analysis. Lungs were collected at selected time points (0.5, 2, 8, and 24 hours) for drug quantification. […] Pharmacokinetic parameters, including Cmax, Tmax, AUC, half-life, clearance, and volume of distribution, were calculated using Phoenix WinNonlin software.

[8] = in vitro; conditions: mouse, plasma
Experimental: as §1

[9] = 24 hours after CLP, 18-gauge, n = 3
[10] = 24 hours after CLP, 2 µmol/kg bw i.v. 5 hours post-surgery, n = 5
[11] = BAL 24 hours after CLP, treatment at 5 hours post-surgery, Mean±Std, n = 8–10
[12] = CLP, VT-109 monotherapy 2 µmol/kg bw i.v.
[13] = PF (peritoneal fluid), head says BAL, CLP, Mean±Std

With CC(C)(C)C[C@@H]1NC(=O)C[C@@H](O)CNC(=O)[C@@H]2C[C@@H]3CCCC[C@@H]3N2C(=O)[C@H](CC(C)(C)C)NC(=O)c2ccc(cc2)CNC(=O)C(C(C)(C)O)NC(=O)[C@@H](Cc2ccccc2)NC1=O (stereo partly drawn) [compound 109, (1^2S,1^3aS,1^7aS,3S,10S,13R,16S,20R)-13-benzyl-20-hydroxy-10-(2-hydroxypropan-2-yl)-3,16-dineopentyl-1^2,1^3,1^3a,1^4,1^5,1^6,1^7,1^7a-octahydro-1^1H-4,8,11,14,17,22-hexaaza-1(1,2)-indola-6(1,4)-benzenacyclotricosaphane-2,5,9,12,15,18,23-heptaone.] (cyclo([4Amb][tBuAla][Oic][GABOB(3R)][tBuAla][dF][ξVal(3-OH)])) the “bacterial counts in the blood or peritoneal fluid” value ([1]; 24 hours after CLP) was “did not affect”, the “phosphorylation of FOXM1 at Ser715” value [1, 9] was “increased phosphorylation” and the “sepsis-induced changes of FOXM1, FOXO1, E2F3, β-catenin and p21 in lung tissue (Western blot)” value [1, 9] was “reversed these changes”. For the same molecule, the “VE-cadherin and occludin expression” value ([1]; 24 hours after CLP, 18-gauge, to the baseline levels of sham mice) was “restored”, the “alanine aminotransferase (ALT), blood” value [1, 10] was “reduced levels” and the “blood urea nitrogen (BUN)” value [1, 10] was “reduced levels”. The “bacterial colony counts in bronchoalveolar lavage fluid (BALF)” value ([1]; 24 hours after CLP, VT-109 monotherapy versus vehicle) was “markedly reduced”, the “BAL Cytokine mGM-CSF” value [1, 11] was 1.21 ± 0.70 pg/mL and the “BAL Cytokine mIFNγ” value [1, 11] was 0.49 ± 0.34 pg/mL. The “BAL Cytokine mIL-1a” value [1, 11] was 0.14 ± 0.00 pg/mL, the “BAL Cytokine mIL-1b” value [1, 11] was 1.59 ± 1.01 pg/mL and the “BAL Cytokine mIL-4” value [1, 11] was 2.79 ± 1.03 pg/mL. For the same molecule, the “BAL Cytokine mIL-6” value [1, 11] was 282.12 ± 522.24 pg/mL, the “BAL Cytokine mIL-10” value [1, 11] was 2.19 ± 2.95 pg/mL and the “BAL Cytokine mIL-12” value [1, 11] was 16.99 ± 7.90 pg/mL. The “BAL Cytokine mIL-17” value [1, 11] was 0.14 ± 0.00 pg/mL, the “BAL Cytokine mKC” value [1, 11] was 609.75 ± 878.78 pg/mL and the “BAL Cytokine mMCP-1” value [1, 11] was 19.17 ± 28.01 pg/mL. For the same molecule, the “BAL Cytokine mMIP-1α” value [1, 11] was 1.16 ± 1.31 pg/mL, the “BAL Cytokine mRANTES” value [1, 11] was 2.55 ± 5.23 pg/mL and the survival rate ([1]; CLP 18-gauge, VT-109 monotherapy 2 µmol/kg bw i.v., initiated 5 hours post-surgery) was “significantly improved the survival rate”. For the same molecule, the survival ([1]; CLP 18-gauge, monotherapy: VT-109 0.5 µmol/kg bw or enrofloxacin 5 mg/kg bw) was “neither antibiotics nor VT-109 monotherapy (0.5 µmol/kg bw) significantly improved survival”, the “acute lung injury (H&E, ALI score)” value [1, 12] was “prevented the development of acute lung injury” and the “neutrophil recruitment into lung tissue (Ly6G)” value [1, 12] was “markedly suppressed”. For the same molecule, the “Cytokine mGM-CSF” value [1, 13] was 15.75 ± 20.22 pg/mL, the “Cytokine mIFNγ” value [1, 13] was 4.39 ± 3.00 pg/mL and the “Cytokine mIL-1a” value [1, 13] was 104.93 ± 94.65 pg/mL. The “Cytokine mIL-1b” value [1, 13] was 229.14 ± 237.82 pg/mL, the “Cytokine mIL-3” value [1, 13] was 0.28 ± 0.00 pg/mL and the “Cytokine mIL-4” value [1, 13] was 6.90 ± 0.83 pg/mL. For the same molecule, the “Cytokine mIL-5” value [1, 13] was 5.06 ± 2.77 pg/mL, the “Cytokine mIL-6” value [1, 13] was 46833 ± 65942 pg/mL and the “Cytokine mIL-10” value [1, 13] was 432.67 ± 490.14 pg/mL. The “Cytokine mIL-12” value [1, 13] was 57.48 ± 43.37 pg/mL, the “Cytokine mIL-17” value [1, 13] was 7.20 ± 5.26 pg/mL and the “Cytokine mKC” value [1, 13] was 24611 ± 34486 pg/mL. For the same molecule, the “Cytokine mMCP-1” value [1, 13] was 16338 ± 17531 pg/mL, the “Cytokine mMIP-1α” value [1, 13] was 5136 ± 8056 pg/mL and the “Cytokine mRANTES” value [1, 13] was 382.32 ± 397.78 pg/mL. For the same molecule, the “Cytokine mTNFα” value [1, 13] was 29.39 ± 31.64 pg/mL, the “VILI-induced vascular albumin leakage” value [2] was “markedly reduced leakage” and the “recruitment of neutrophils (MPO levels in the lung tissues)” value [2] was “prevented”. The half-life at 5 μM [3] was 4.88 h, the remaining at 2 h, 5 μM [3] was 76.5% and the “neutrophils in the lung tissues” value ([4]; 5 × 10^5 CFU i.t., 250 nmol/kg bw at 5 hours post-challenge, 24 and 48 hours) was “far fewer neutrophils”. The “lung injury (histopathology)” value ([4]; 5 × 10^5 CFU i.t., 250 nmol/kg bw, 24 and 48 hours) was “appeared uninjured”, the bacterial counts ([4]; both time points, did not reach statistical significance) was “modest reduction” and the half-life at 5 μM [5] was > 8 h. The remaining at 2 h, 5 μM [5] was 101%, the half-life at 5 μM [6] was > 8 h and the remaining at 2 h, 5 μM [6] was 91.9%. It also gave a level at 0.167 h [7] of 23700 ng/mL, a level at 0.5 h [7] of 2550 ng/mL and a level at 1 h [7] of 580 ng/mL. It also gave a level at 1.5 h [7] of 399 ng/mL, a level at 2 h [7] of 252 ng/mL and a level at 4 h [7] of 127 ng/mL. For the same molecule, the level at 6 h [7] was 66.3 ng/mL, the level at 8 h [7] was 42.7 ng/mL and the level at 24 h [7] was 5.9 ng/mL. For the same molecule, the half-life at 5 μM [8] was > 8 h and the remaining at 2 h, 5 μM [8] was 89.8%.
